Laboratory results from US20030036103A1, “Methods and compositions for diagnosis and treatment of vascular conditions” (priority 2001, published 2003).

How the values were obtained:
Type in all cases: cell-based
endothelial cells = test: Heparanase expression in endothelial cells induced by lysolecithin
[1] = test system: human microvascular endothelial cells (HMVEC); test: Induction of endothelial heparanase protein by cytokines (immunoblot); settings: TNFα
Description: Experiments were done on human microvascular endothelial cells (HMVEC) grown in 48-well plates (˜90% confluency). To induce heparanase activity, culture media was replaced with 200 μl Dulbecco's modified Eagle's medium (DMEM) complemented with 1% bovine serum albumin (BSA) and 100 ng biotinylated HS with or without stimulants (5 ng/ml TGFα, 1 ng/ml IL 1β, or 200 ng/ml VEGF). Cells were incubated in a cell culture incubator for 16-18 hours and the entire 200 μmedia was added to a streptavidin-coated plate and followed by standard color development assay as described in Example 2. The secreted proteins were analyzed by SDS-PAGE and heparanase protein was detected by immunoblotting using polyclonal anti-human heparanase antibody.
Human microvascular endothelial cells (HMVEC) were grown in 48-well plates (˜90% confluency). To induce heparanase activity, culture media was replaced with 200 μl Dulbecco's modified Eagle's medium (DMEM) complemented with 1% bovine serum albumin (BSA) and 100 ng biotinylated HS with 0, 0.02, 1.5 and 5 ng/ml of TNFα. The secreted heparanase was detected by immunoblotting the culture media with anti-human heparanase antibody.

[2] = test system: human microvascular endothelial cells (HMVEC); test: TNFα-induced heparanase secretion by endothelial cells with signaling inhibitors (immunoblot); settings: HMVEC incubated with TNFα and inhibitor for 16 h; wortmannin 0.1 and 0.5 μM, Ly294002 10 and 50 μM, SN50 10 μM, FPT inhibitor III 100 μM, PD98059 5 μM, SB203580 650 nM, ZM336372 200 nM, caspase inhibitor III 10 μM; FIG. 5
Description: Human microvascular endothelial cells (HMVEC) were grown in 48-well plates (˜90% confluency). To induce heparanase activity, culture media was replaced with 200 μl Dulbecco's modified Eagle's medium (DMEM) complemented with 1% bovine serum albumin (BSA), 100 ng biotinylated HS and TNFα with or without (FIG. 5A) P13 kinase inhibitors (wortmannin, 0.1 μM and 0.5 μM, or Ly294002, 10 μM and 50 μM), (FIG. 5B) NFκB inhibitor (SN50, 10 μM), several MAP kinase inhibitors (FIG. 5C)—either 100 μM FPT inhibitor III (FPT, inhibits Ras processing in cells), 5 μM MAP kinase (MEK), inhibitor PD98059 (PD), 650 nM p38 kinase inhibitor SB203580 (SB), 200 nM c-Raf inhibitor ZM336372 (ZM); or an inhibitor cocktail (Cl) that contains all of the four inhibitors; or broad-spectrum caspase inhibitor III (Casp-I, 10 μM) (FIG. 5D). The cells were incubated with TNFα and the inhibitors for 16 h. The culture media was collected and the secreted proteins were analyzed by SDS-PAGE and heparanase protein was detected by immunoblotting using polyclonal anti-human heparanase antibody.

Compound	inhibition of TNFα-induced heparanase secretion [2]	further results
lysolecithin	–	induction of heparanase expression in endothelial cells (endothelial cells): induces heparanase expression
TNFα	–	induction of heparanase in endothelial cells [1]: induces heparanase
C[S+]([O-])c1ccc(-c2nc(-c3ccncc3)c(-c3ccc(F)cc3)[nH]2)cc1 (stereo not drawn) [SB203580]	do not inhibit	–
COC(=O)CC(NC(=O)OC(C)(C)C)C(=O)CF (stereo not drawn) [caspase inhibitor III]	blocked heparanase secretion	–
Cc1ccc(NC(=O)c2cccc(N(C)C)c2)cc1NC(=O)c1ccc(O)cc1 [ZM336372]	do not inhibit	–
COc1cccc(-c2cc(=O)c3ccccc3o2)c1N [PD98059]	do not inhibit	–
